# Experiments:
# NOX2 = biological target: T1, NOX2 (Homo sapiens, UniProt P14598); test: NADPH oxidase (NOX2) inhibition, DCF fluorescence in PMA-activated neutrophil-differentiated HL-60 cells; assay type: cell-based; settings: for inhibition of NOX2-derived ROS production (in words): PMA-activated HL-60 cells, 0.05 µM to 50 µM; for IC50: neutrophil-differentiated HL-60 cells, PMA 0.8 µM, DCF fluorescence, 0.05 to 50 µM
# T1 construct: HL-60 cells expressed the components of NOX2, including gp91, p22^phox, p47^phox, and p67^phox; endogenous in cells; whole cells in A1, membrane preparations in A3 and A4
# T1 sequence (P14598 1-390): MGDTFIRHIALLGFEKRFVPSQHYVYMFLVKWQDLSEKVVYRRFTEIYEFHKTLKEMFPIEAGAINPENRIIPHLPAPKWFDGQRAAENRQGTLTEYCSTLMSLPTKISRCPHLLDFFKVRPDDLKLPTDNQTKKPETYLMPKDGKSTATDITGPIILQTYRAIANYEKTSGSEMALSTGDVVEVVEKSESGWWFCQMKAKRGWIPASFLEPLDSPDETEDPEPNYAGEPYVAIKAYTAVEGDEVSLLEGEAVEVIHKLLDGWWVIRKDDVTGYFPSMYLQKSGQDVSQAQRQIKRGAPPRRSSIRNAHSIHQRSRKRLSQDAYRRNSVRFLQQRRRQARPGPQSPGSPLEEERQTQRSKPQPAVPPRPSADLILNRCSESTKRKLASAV
# Description: The differentiation of HL-60 cells to neutrophils was performed after reaching a concentration of between 2 × 10^6 and 5 × 10^6 cells/mL in the differentiation medium: RPMI 1640 medium; 10% FBS; 100 IU/mL of penicillin/streptomycin; and 1.3% DMSO for 7 days, replenishing the differentiation medium every 2 days.
# The 2′,7′-dichlorofluorescein (DCF) fluorescence analysis was used to determine NADPH oxidase activity in neutrophil-differentiated HL-60 cells. The method, based on a fluorimetric assay, was adapted from Boly et al.. Briefly, 1 × 10^6 neutrophil-differentiated HL-60 cells/mL were incubated for 45 min. at 37 °C in darkness with DCF-DA (1 mg/mL). The cell suspension was then transferred to a 15 mL conical tube and centrifuged at 330× g × 10 min at 37 °C. After the supernatant was removed, the cells were re-suspended in Hanks balanced saline buffer (HBSS, Sigma-Aldrich, St. Louis, MO, USA) and transferred to dark 96-well plates with a flat glass bottom (Thermo Scientific Nunc 96 microwell® black, Optical Botton # 1.5 Cover Glass Base, Thermo Fisher Scientific). Then, 200 μL of cell suspension per well were incubated at 37 °C for 30 min with the indole heteroaryl-acrylonitriles at increasing concentrations (0.05 to 50 μM). […] Finally, PMA (0.8 μM) was added to each well for 10 min. to generate the activation of NOX2. The generation of the DCF fluorescence product was monitored in an automatic microplate reader (FLx800, BioTek Instruments, Winooski, VT, USA) at 1-min intervals at 37 °C for 1 h, using an excitation wavelength of 485 nm and an emission wavelength of 555 nm. The ability to inhibit ROS production by activated neutrophil-differentiated HL-60 cells was compared against the different controls. A control was performed with cells activated by PMA in the presence of DMSO and established as having 100% of the ROS-induced fluorescence. Inhibition control was performed in the presence of VAS2870 (20 µM) and activated by PMA. Another control (NA, not activated) was done with cells in the absence of PMA and the indole heteroaryl-acrylonitriles.
# All the experiments were performed in triplicate, using three different cell preparations, and the data were reported as mean ± s.e.m. For the determination of the IC50 of the indole heteroaryl-acrylonitriles, concentration-response curves (0.05 to 50 μM) were constructed. IC50 values were given as the mean ± standard deviation for at least three independent assays. The data were analyzed using one- and two-way ANOVA. A value of p < 0.05 was considered statistically significant. Statistical analyses were performed using the program GraphPad Prism® version 6.00, San Diego, CA, USA.
# HL-60 cells = test: MTT cytotoxicity assay; assay type: cell-based, human; settings: 72 h; for cytotoxicity (in words): 0.01 µM to 100 µM, MTT
# Description: To verify the cytotoxicity of the acrylonitrile derivatives, the MTT reduction method was performed. Briefly, HL-60 cells were seeded in a flat-bottomed 96-well plate at a density of 10,000 cells per well. […] In a second series of experiments, cells were incubated under the same conditions but for 72 h. Etoposide was used as a positive control. Ten μL of MTT was added at a final concentration of 0.5 mg/mL, incubated at 37 °C for 4 h, and then solubilized with 10% SDS in 0.1 mM HCl and incubated overnight at 37 °C. Finally, a blue-colored compound (formazan) formation was measured at 570 nm in a multiplate reader (StatFax 4200, Awareness Technology, Inc., Palm City, FL, USA). The viability percentage was obtained as follows: Viability % = [treated cells DO × 100]/[DO cells control].
IC50 (NOX2) [nM],SMILES,inhibition of NOX2-derived ROS production (in words) (NOX2),cytotoxicity (in words) (HL-60 cells),cytotoxicity (HL-60 cells; 1 µM (corresponding to the IC50 value))
1100 ± 200,N#C/C(=C\c1cc(-c2ccccc2)on1)C(=O)c1c[nH]c2ccccc12 [Compound C6],exhibited concentration-dependent inhibition of NOX2,non-cytotoxic,about 55%
3600 ± 200,N#C/C(=C\c1ccncc1)C(=O)c1c[nH]c2ccccc12 [Compound C14],exhibited concentration-dependent inhibition of NOX2,non-cytotoxic,–
